# From PubChem BioAssay (NCI)
# Values joined by “and” are separate entries in the source; they are usually repeats but may differ in a detail not shown here. Equal values may be shown once.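 Values below derive from 48-hour exposures of cells grown in 96-well plates, with endpoints linearly interpolated between the two concentrations bracketing the appropriate inhibition level. At the GI50, growth is halved. At the TGI there is no net growth.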
# Tested on: MDA-MB-468 breast
# Experiment: NCI tumour cell line growth inhibition, 48 h
SMILES,GI50,TGI
C[C@H]1[C@H]2[C@H]3CC[C@@H]4[C@@]5(C)C/C(=C/c6cccnc6)C(=O)C(C)(C)[C@@H]5CC[C@@]4(C)[C@]3(C)CC[C@]23CO[C@]1(C)[C@@H](C(=O)/C=C\c1cccnc1)C3,864 nM,2390 nM
CCc1cc2c(cc1N1CCC(N3CCOCC3)CC1)C(C)(C)c1[nH]c3cc(C#N)ccc3c1C2=O,1800 nM and 2050 nM and 2140 nM,5250 nM and 5670 nM and 7850 nM
c1ccc(CN=C(NCc2ccccc2)NCc2ccccc2)cc1,2290 nM,5380 nM
CC/C(=C(/c1ccc(O)cc1)c1ccc(OCCN2CCCCC2)cc1)c1ccc(OC)cc1,1370 nM,3220 nM
Cc1nc2cnc(N)c(C#Cc3cncc(C(=O)Nc4ccc(Cl)c(C(F)(F)F)c4)c3)c2nc1C,2870 nM,11600 nM
COc1cc(-c2ncn(/C=C\C(=O)OC(C)C)n2)cc(C(F)(F)F)c1,126 nM and 141 nM,670 nM and 1240 nM
CC1=C([Te]c2ccc(O)cc2)C(=O)c2ccccc2C1=O,697 nM,2170 nM
Cc1ncsc1-c1ccc(CNC(=O)[C@@H]2C[C@@H](O)CN2C(=O)[C@@H](NC(=O)C2(C#N)CC2)C(C)(C)C)cc1,54500 nM,> 100000 nM
C=CN(C)S(C)(=O)=O,> 100000 nM,> 100000 nM
CNC(=O)Oc1cc(C)c(/C=C/c2cncc(C(=O)NC)c2)c(C)c1,11000 nM,> 25000 nM
CCc1ccc2c(c1)N(CCO)C1=C(C(=O)OC1)C2c1cccc(Cl)c1 (configuration not stated),239 nM,861 nM
CCS(=O)(=O)Nc1cccc(Nc2c3cccc(C)c3nc3c(C)cccc23)c1OC,2240 nM,25500 nM
O=C(/C(=C/c1ccc([N+](=O)[O-])cc1)SCc1ccc(F)cc1)c1ccc(Cl)cc1,9460 nM,38700 nM
Cc1cc(O)cc(C)c1/C=C/c1cncc(-c2nn[nH]n2)c1,> 25000 nM,> 25000 nM
COc1cccc2c1c(C1=C(c3cn(C)c4ccccc34)C(=O)NC1=O)cn2C,> 25000 nM,> 25000 nM
O=C1OC(c2ccccc2)(c2cc(Br)c(O)c(Br)c2)c2ccccc21 (configuration not stated),27000 nM,90900 nM
CCN(CC)CCCC(C)N=c1cc(Nc2cc(=NC(C)CCCN(CC)CC)c3cc(OC)ccc3o2)oc2ccc(OC)cc12 (configuration not stated),543 nM,1190 nM
Nc1c(C(=O)c2ccc(CCCN3CCOCC3)cc2)cnn1-c1ccc(F)cc1,8190 nM,> 25000 nM

SMILES,GI50,TGI
O=C(NO)c1ccc(Cn2c(=O)n(-c3ccccc3F)c(=O)c3ccccc32)cc1,1180 nM,3210 nM
COc1cc(OC)c(NC(=O)c2cc3ccccc3cc2O)cc1Cl,3120 nM,8240 nM
COc1cnc2c(c1)C(=O)c1c-2n(CCCNC(C)C)c(=O)c2cc(F)ccc12,226 nM,702 nM
CCN(CC)CCNc1cc(-c2cccc(OC(F)(F)F)c2)nc2ccc(N3CCCC3)cc12,1640 nM and 1840 nM,3180 nM and 3610 nM
CN1CC(CNC(=O)OCc2ccccc2)CC2c3cccc4c3c(cn4C)CC21 (configuration not stated),1610 nM,3120 nM
COc1cc(-c2nn(-c3cccc(NC(=O)c4ccc(N5CCOCC5)c(C(F)(F)F)c4)c3)cc2-c2ccncc2)ccc1Cl,183 nM,781 nM
O=C(NCc1ccncc1)C12CC3CC(C1)CC(c1ccc(Cl)cc1)(C3)C2,6580 nM,21100 nM
Cc1ccc(-c2nc(N3CCCNCC3)c3oc(-c4ccccc4)nc3n2)cc1,1550 nM,3240 nM
COc1ccc(-c2nc(N3CCN(C(=O)C4CCCCC4)CC3)c3c4c(sc3n2)CCCC4)cc1,29100 nM,> 100000 nM
O=C(Nc1nc2ccc(F)cc2s1)c1cccnc1Nc1ccc(Cl)cc1,1610 nM,> 100000 nM
C/C(=C(\c1ccc(OCCN2CCCCCC2)cc1)c1ccc(OC(=O)Cc2ccccc2)cc1)c1ccc(Cl)cc1,1990 nM,4380 nM
CCCCCCc1nc2nc(Cl)c(Cl)nc2[nH]1,2900 nM,> 100000 nM
COc1ccc(-c2c(-c3cc(OC)c(OC)c(OC)c3)noc2N)cc1,< 14.3 nM,1100 nM
O=S(=O)(Nc1cc(Cl)ccc1Cl)c1ccc(-c2cnc(C3CC3)o2)cc1,821 nM,30100 nM
CCOC(=O)[C@@H](C)C[C@H](Cc1ccccc1)NC(=O)c1csc([C@@H](C[C@H](C(C)C)N(C)C(=O)[C@H](CC)NC(=O)[C@H]2CCCCN2C)OC(C)=O)n1,< 1.67 nM,> 12600 nM
COC(=O)[C@H](Cc1ccc(O)cc1)NC(=O)[C@@H](OC)[C@@H]1Cc2cc3cc(OC4CC(OC5CC(O)C(O)C(C)O5)C(O)C(C)O4)c(C)c(O)c3c(O)c2C(=O)[C@H]1OC1CC(OC2CC(OC3CC(C)(O)C(O)C(C)O3)C(O)C(C)O2)C(O)C(C)O1 (some centres not stated),67.2 nM,839 nM
Cc1cc(Oc2ccc3nc(COc4ccc(CC5SC(=O)NC5=O)cc4)n(C)c3c2)cc(C)c1N (configuration not stated),25900 nM,> 93600 nM
CN(C)CCCNC(=O)c1cncnc1Nc1ccc(OCc2cccc(F)c2)c(Cl)c1,1550 nM,3020 nM
